Assay: Pharmacokinetics of mannoheptulose, once daily in a nutritionally-balanced composition, adult Labrador Retrievers
Assay type: in vivo, Labrador Retriever dogs
Experimental: The pharmacokinetics of mannoheptulose can be determined in six adult, male Labrador Retriever dogs fed a nutritionally-balanced composition providing mannoheptulose at levels of 0, 1 or 2 mg/kg of body weight of the dog. Mannoheptulose is provided as an enriched source of avocado extract in the 1 and 2 mg/kg diets. The mean age of the dogs is 4.2 years and the age ranges from 3.3 to 6.1 years. The average body weight of all dogs is 33 kg and the body weight ranges from 28 to 36 kg. Dogs are adapted for 14 days to a nutritionally-balanced control composition (Eukanuba Senior Maintenance Formula) containing no mannoheptulose, avocado extract or avocado meal (0 mg/kg mannoheptulose). The two compositions containing mannoheptulose are the nutritionally-balanced control composition formulated with avocado extract to provide a mannoheptulose dose of 1 or 2 mg/kg of body weight when fed to a dog. The amount of composition offered to the dogs is based on feeding guidelines for the control composition and the target weight range and body condition of the dogs. After 14 days, dogs are fed one of the three compositions for 9 days. On day 9, the dogs are fed their daily allotment of composition as a single meal at 0730. Dog 1 and dog 2 are fed the control composition containing 0 mg/kg mannoheptulose, dog 3 and dog 4 are fed the composition containing 1 mg/kg mannoheptulose, and dog 5 and dog 6 are fed the composition containing 2 mg/kg mannoheptulose. Pharmacokinetics of mannoheptulose following once daily administration of mannoheptulose in a nutritionally-balanced composition is determined by collecting serial blood samples (3 mL) from each dog on day 9 using a Vacutainer blood collection system and jugular venipuncture. Blood samples are collected at −30, 0, 30, 60, 90, 120, 240, 360, 480, 600, 720 and 1,440 minutes relative to each dog receiving their entire daily allotment of composition as a single meal. Plasma mannoheptulose concentrations are measured using high-performance liquid chromatography tandem mass spectrometry as described herein below.
A one-compartment model is used to calculate mannoheptulose pharmacokinetics based on plasma mannoheptulose levels following once daily oral administration of mannoheptulose in a nutritionally-balanced composition (PV(t)). The model is: PV(t)=dose/(a·BW)e^−kt where: a mannoheptulose pool size (dose/(enrichment at to)), BW=body weight, k=rate constant of elimination (In Et−1n E0)/−t, and t=time. Area under each plasma mannoheptulose curve is determined using a one-way, repeated measures analysis of variance (GraphPad Prism version 4.00 for Windows).
High performance liquid chromatography tandem mass spectrometry (HPLC/MS/MS) is utilized to determine the amount of mannoheptulose present in the plasma of adult dogs. D-mannoheptulose and its chemical analog internal standard (D7-glucose) are isolated from dog plasma by a protein precipitation procedure (described herein below) using a 96-well format. […] Detection and quantitation is by mass spectrometry (MS) operating under multiple reaction monitoring MS/MS conditions. Concentrations of D-mannoheptulose in dog plasma can be quantitated from approximately 20 to 5000 ng/mL. […] Specimen concentrations are determined by back-calculation using a weighted (1/x^2) linear regression of a calibration curve generated from prepared D-mannoheptulose calibration standards.

## O=C(CO)[C@@H](O)[C@@H](O)[C@H](O)[C@H](O)CO [mannoheptulose]
0, 1, 2 mg/kg
  response of plasma mannoheptulose levels to dietary mannoheptulose levels: dose-dependent manner
After consumption of the single daily meal
  time for plasma mannoheptulose to return to non-detectable levels: ≤ 24 h
male, Labrador Retriever, dog, plasma, once daily oral, 2 mg/kg, mathematical modeling
  half-life: 6.25 h
Once daily oral, 2 mg/kg, mathematical modeling
  turnover time: 9.0 h
Once daily oral, 1 or 2 mg/kg
  order of plasma kinetics: first order kinetics
